# In patent US11453663B2, “Substituted propanamides as inhibitors of nucleases” (MASARYKOVA UNIVERZITA, priority 2018, dated 2022):
# Legend:
# [1] = tested on: DR-GFP U2OS cells; assay: HR assay (GFP fluorescence by flow cytometry after I-SceI transfection); format: cell-based; conditions: Homo sapiens, 25 μM inhibitor, 72 hours after transfection
# Procedure: DR-GFP U2OS cells (Methods in Molecular Biology 2012, 920, 379.) were transfected with 2.5 μg of I-SceI-expressing pCAGGS vector and treated with the inhibitors at 25 μM concentration. 72 hours after the transfection, the cells were trypsinized and resuspended in 3% BSA in PBS. GFP fluorescence detection was carried out using a BD FACSVerse flow cytometer and data analyzed with FlowJo software.
# [2] = tested on: Phosphorylated RPA32 S4/S8 in U2OS cells; assay: RPA assay (camptothecin-induced RPA phosphorylation); format: cell-based; conditions: Homo sapiens, 1 h pre-treatment, 1 uM camptothecin 1 h; for inhibition at 10 µM: 10 μM inhibitor
# Procedure: U2OS cells were pre-treated for 1 h with MRE11 inhibitors followed by addition of 1 uM camptothecin for 1 h. Cells were lysed in SDS-PAGE loading buffer, sonicated and boiled at 70° C. for 10 min. Equal amounts of protein (50-100 μg) were analysed by Tris-glycine gel electrophoresis Expression levels were quantified using Multi Gauge software and expressed relative to loading control. Phosphorylated RPA32 S4/S8 (A300-245A, Bethyl Laboratories) 1:1000 dilution was used.
# [3] = molecular target: MRE11 (Homo sapiens (Human), UniProt P49959); assay: HTS nuclease assay (fluorescence-quenched 5′ overhang DNA substrate cleavage); format: biochemical; conditions: 18 nM MRE11, 40 nM DNA substrate, analysis at t=4 h
# Procedure: DNA Substrate Preparation
# The DNA substrate is prepared by mixing the oligonucleotides listed below in a 1:1 ratio to reach a final concentration of 6 μM in a buffer containing 50 mM Tris pH 7.5, 100 mM NaCl and 8 mM MgCl2.
# The mixture is heat for 3 min at 65° C. and let to cool down slowly to RT. Then it is stored at −20° C.
# This substrate is a 5′ overhang, which is a preferred substrate of MRE11. […] The fluorescence increases upon substrate cleavage by MRE11, when separation of the two labels occur.
# The conditions of the assay are as follows:
# Total reaction volume: 5 μL
# DNA substrate concentration in the reaction: 40 nM
# Inhibitor concentration range tested: 7 nM-50 μM
# Each plate contains a series of high and low signal control wells, where no compound is added:
# High signal: MRE11+DNA substrate
# Low signal: DNA substrate only
# These are used during data evaluation.
# Two Extra Assay Controls:
# 1) To check whether unwinding of DNA by the compounds alone occurs.
# The DNA substrate [CY5+BBQ(650)] is mixed with the compounds with no protein present.
# The CY5 single stranded oligo is mixed with the compounds with no protein present.
# The layout of the plates is created by the in-house software (CZ-Openscreen Prague) and this information is transferred to the robotic HTS station.
# The reaction is started by the addition of DNA and the reaction time is counted from that moment, including a 15 min delay. Ten timepoints are measured:
# The assay data analysis was performed at t=4 h. This corresponds to the time when the reaction is close to its maximum.
# The data analysis was performed using the in-house software (CZ-Openscreen Prague) to obtain IC50 for each compound.
# Chain of MRE11 (P49959 whole entry): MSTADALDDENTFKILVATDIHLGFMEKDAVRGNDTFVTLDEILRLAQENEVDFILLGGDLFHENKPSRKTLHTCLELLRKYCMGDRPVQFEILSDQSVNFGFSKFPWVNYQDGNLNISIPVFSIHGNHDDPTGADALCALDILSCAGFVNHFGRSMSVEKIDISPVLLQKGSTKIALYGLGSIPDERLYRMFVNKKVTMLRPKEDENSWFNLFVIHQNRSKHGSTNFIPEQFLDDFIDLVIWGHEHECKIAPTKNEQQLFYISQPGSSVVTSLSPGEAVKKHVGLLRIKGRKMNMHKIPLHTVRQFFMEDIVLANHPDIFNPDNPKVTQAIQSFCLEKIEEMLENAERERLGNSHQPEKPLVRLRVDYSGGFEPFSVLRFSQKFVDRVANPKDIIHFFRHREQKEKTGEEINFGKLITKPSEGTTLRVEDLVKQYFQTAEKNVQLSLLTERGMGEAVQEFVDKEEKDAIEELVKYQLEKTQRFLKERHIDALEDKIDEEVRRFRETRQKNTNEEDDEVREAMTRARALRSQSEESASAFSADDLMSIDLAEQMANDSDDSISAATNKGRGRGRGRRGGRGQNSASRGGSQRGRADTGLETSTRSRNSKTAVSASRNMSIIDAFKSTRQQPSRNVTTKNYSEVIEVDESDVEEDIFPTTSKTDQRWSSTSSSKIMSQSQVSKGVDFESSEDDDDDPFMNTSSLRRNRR
IC50 [3] [µM],Compound,inhibition at 25 µM [1] [%],inhibition at 10 µM [2] [%],inhibition at 25 µM ([2]; 25 μM inhibitor) [%]
2 to 10,"N#CC(Cc1ccc(O)c(O)c1)C(=O)Nc1nc(-c2ccc(Br)cc2)cs1 (centres unmarked) [Preparative Example 129, N-(4-(4-bromophenyl)thiazol-2-yl)-2-cyano-3-(3,4-dihydroxyphenyl)propanamide]",> 75,60,
2 to 10,"CC(C)(C)c1ccc(-c2csc(NC(=O)C(C#N)Cc3ccc(O)c(O)c3)n2)cc1 (centres unmarked) [Preparative Example 140, N-(4-(4-(tert-butyl)phenyl)thiazol-2-yl)-2-cyano-3-(3,4-dihydroxyphenyl)propanamide]",> 75,40,
2 to 10,"N#CC(Cc1ccc(O)c(O)c1)C(=O)Nc1nc(-c2ccccc2C(F)(F)F)cs1 (centres unmarked) [Preparative Example 159, 2-cyano-3-(3,4-dihydroxyphenyl)-N-(4-(2-(trifluoromethyl)phenyl)thiazol-2-yl)propanamide]",< 50,,
2 to 10,"N#CC(Cc1ccc(O)c(O)c1)C(=O)Nc1nc(-c2ccccc2)c(C2CCCCC2)s1 (centres unmarked) [Preparative Example 146, 2-cyano-N-(5-cyclohexyl-4-phenylthiazol-2-yl)-3-(3,4-dihydroxyphenyl)propanamide]",> 75,,
< 2,"N#CC(Cc1ccc(O)c(O)c1)C(=O)Nc1nc(-c2cc(C(F)(F)F)ccn2)cs1 (centres unmarked) [Preparative Example 174, 2-cyano-3-(3,4-dihydroxyphenyl)-N-(4-(4-(trifluoromethyl)pyridin-2-yl)thiazol-2-yl)propanamide]",> 75,,
2 to 10,"Cc1ccccc1-c1csc(NC(=O)C(C#N)Cc2ccc(O)c(O)c2)n1 (centres unmarked) [Preparative Example 161, 2-cyano-3-(3,4-dihydroxyphenyl)-N-(4-(o-tolyl)thiazol-2-yl)propanamide]",50 to 75,,
2 to 10,"Cc1ccnc(-c2csc(NC(=O)C(C#N)Cc3ccc(O)c(O)c3)n2)c1 (centres unmarked) [Preparative Example 164, 2-cyano-3-(3,4-dihydroxyphenyl)-N-(4-(4-methylpyridin-2-yl)thiazol-2-yl)propanamide]",> 75,,
2 to 10,"N#CC(Cc1ccc(O)c(O)c1)C(=O)Nc1nc(-c2ccc3c(c2)CCCC3)cs1 (centres unmarked) [Preparative Example 153, 2-cyano-3-(3,4-dihydroxyphenyl)-N-(4-(5,6,7,8-tetrahydronaphthalen-2-yl)thiazol-2-yl)propanamide]",> 75,,
2 to 10,"N#CC(Cc1ccc(O)c(O)c1)C(=O)Nc1nc(-c2ccc(OC(F)(F)F)cc2)cs1 (centres unmarked) [Preparative Example 136, 2-cyano-3-(3,4-dihydroxyphenyl)-N-(4-(4-(trifluoromethoxy)phenyl)thiazol-2-yl)propanamide]",> 75,40,
2 to 10,"N#CC(Cc1ccc(O)c(O)c1)C(=O)Nc1nc(-c2cc(Cl)sc2Cl)cs1 (centres unmarked) [Preparative Example 175, 2-cyano-N-(4-(2,5-dichlorothiophen-3-yl)thiazol-2-yl)-3-(3,4-dihydroxyphenyl)propanamide]",50 to 75,,

# The next lines start with the molecule.
Compound,IC50 [3] [µM],inhibition at 25 µM [1] [%],inhibition at 10 µM [2] [%],inhibition at 25 µM ([2]; 25 μM inhibitor) [%]
"CC(C)(C)c1cc(CC(C#N)C(=O)Nc2nc(-c3ccccc3)cs2)cc(C(C)(C)C)c1O (centres unmarked) [Preparative Example 139, 2-cyano-3-(3,5-di-tert-butyl-4-hydroxyphenyl)-N-(4-phenylthiazol-2-yl)propanamide]",,> 75,70,
"N#CC(Cc1cc(Cl)c(O)c(Cl)c1)C(=O)Nc1nc(-c2ccc(OC(F)(F)F)cc2)cs1 (centres unmarked) [Preparative Example 137, 2-cyano-3-(3,5-dichloro-4-hydroxyphenyl)-N-(4-(4-(trifluoromethoxy)phenyl)thiazol-2-yl)propanamide]",2 to 10,< 50,,
"Cc1ccc(-c2sc(NC(=O)C(C#N)Cc3ccc(O)c(O)c3)nc2-c2ccccc2)cc1 (centres unmarked) [Preparative Example 135, 2-cyano-3-(3,4-dihydroxyphenyl)-N-(4-phenyl-5-(p-tolyl)thiazol-2-yl)propanamide]",< 2,> 75,,
"N#CC(Cc1cc(F)c(O)c(Cl)c1)C(=O)Nc1nc(-c2ccccc2)cs1 (centres unmarked) [Preparative Example 156, 3-(3-chloro-5-fluoro-4-hydroxyphenyl)-2-cyano-N-(4-phenylthiazol-2-yl)propanamide]",2 to 10,< 50,,
"CC(C)(C)c1cc(CC(C#N)C(=O)Nc2nc(-c3ccccn3)cs2)cc(C(C)(C)C)c1O (centres unmarked) [Preparative Example 169, 2-cyano-3-(3,5-di-tert-butyl-4-hydroxyphenyl)-N-(4-(pyridin-2-yl)thiazol-2-yl)propanamide]",10 to 90,> 75,,
"Cc1cc(CC(C#N)C(=O)Nc2nc(-c3ccccc3)cs2)cc(Cl)c1O (centres unmarked) [Preparative Example 155, 3-(3-chloro-4-hydroxy-5-methylphenyl)-2-cyano-N-(4-phenylthiazol-2-yl)propanamide]",10 to 90,< 50,,
"N#CC(Cc1ccc(O)c(O)c1Br)C(=O)Nc1nc(-c2ccccc2)cs1 (centres unmarked) [Preparative Example 148, 3-(2-bromo-3,4-dihydroxyphenyl)-2-cyano-N-(4-phenylthiazol-2-yl)propanamide]",< 2,> 75,,90
